{"source": "patent US20240245711A1", "about": "“A 19-NOR C3,3-DISUBSTITUTED C21-N-PYRAZOLYL STEROID FOR THE TREATMENT OF MAJOR DEPRESSIVE DISORDER” (Sage Therapeutics, Inc., priority 2021, published 2024)", "system": "adult subjects with Major Depressive Disorder", "assay": "Phase 3 open-label 1-year study: HAM-D total score, response and remission", "assay_type": "in vivo, human", "excerpt": "Secondary Objective: To assess the need for re-treatment with Compound (1) following initial treatment in adults with MDD currently experiencing an MDE over a 1-year period, and to assess the response of initial treatment and re-treatment(s) with Compound (1) following an initial 2-week treatment period in adults with MDD currently experiencing an MDE over a 1-year period.\nSecondary Endpoints: The need for re-treatment with Compound (1) as assessed by: time to first re-treatment (Kaplan-Meier curves), number of subjects achieving the requirements for re-treatment, number of re-treatment cycles for each subject, the response of initial treatment and/or re-treatment as assessed by: change from baseline in the 17-item Hamilton Rating Scale for Depression (HAM-D) total score at the end of each 14-day treatment (initial and/or re-treatment) period, HAM-D response at the end of each 14-day treatment (initial and/or re-treatment) period, defined as a ≥50% reduction in HAM-D score from baseline, HAM-D remission at the end of each 14-day treatment (initial and/or re-treatment) period, defined as HAM-D total score≤7, Clinical Global Impression-Improvement (CGI-I) response, defined as “much improved” or “very much improved”, at the end of each 14-day treatment (initial and/or re-treatment) period, change from baseline in Clinical Global Impression-Severity (CGI-S) score at the end of each 14-day treatment (initial and/or re-treatment) period.\nStudy Population: Subjects were 18-75 years old, diagnosed with major depressive disorder (MDD) with a MADRS total score of ≥28 and a HAM-D total score of ≥20 at Screening and Day 1 (prior to dosing).\nTreatment Groups: The 30 mg and 50 mg dose groups were separated by time of enrollment. The study is comprised of two cohorts: one with Compound (1) 30 mg as a starting dose (30 mg Cohort: n=725), an initial cohort with Compound (1) 50 mg as a starting dose (50 mg Cohort: n=199). A patient receiving Compound (1) 30 mg could be dose reduced to 20 mg and patients receiving Compound (1) 50 mg could be dose reduced to 40 mg (based on tolerability). In all cohorts, Compound (1) is self-administered by patients as an oral therapy once nightly with food for 14 days.\nEligible subjects were given Compound (1)—to be taken at home in the evening with meal.\nThe cohorts pertaining to the different doses that the subjects received were defined as following: • 50 mg cohort: This cohort includes subjects who have initiated treatment with 50 mg and received re-treatment with 50 mg only. • 30 mg cohort: This cohort includes subjects who have initiated treatment with 30 mg regardless of the dose they have received in re-treatments. • Low dose cohort: This cohort includes subjects who have initiated treatment with 30 mg and received re-treatment with 30 mg only. • Dose switch cohort: This cohort includes subjects who have received initial treatment with 30 mg and at least one subsequent re-treatment with 50 mg. • Study Period X: starts on the date of the first dose of Compound (1) in cycle X and goes up to one day prior to the first dose of the next cycle. In some embodiments, X is any number from 1 to 5. • Treatment Period X: starts on the date of the first dose of Compound (1) in cycle X and goes up to one day after the last dose in cycle X. In some embodiments, X is any number from 1 to 5. • Treatment Cycle X: starts on the date of the first dose of Compound (1) in cycle X and goes up to 14 days after the last dose in cycle X. The treatment cycles may be denoted as C1-C5. • Observation period X: starts the day after Treatment Cycle X ends and goes up to one day prior to the start of next treatment cycle. In some embodiments, X is any number from 1 to 5.\nAnalysis Sets: The safety set was defined as all subjects who were administered study drug. The period-specific safety set includes subjects in the safety set who were administered study drug in the corresponding treatment cycle. […]", "key": {"[1]": {"conditions": "Study Period 1, safety set, 30 mg Cohort (N = 725), Day 126"}, "[2]": {"conditions": "Study Period 1, safety set, 50 mg Cohort (N = 199), Day 8"}, "[3]": {"conditions": "Study Period 1, safety set, 50 mg Cohort (N = 199), Day 15"}, "[4]": {"conditions": "Study Period 1, safety set, 50 mg Cohort (N = 199), Day 28"}, "[5]": {"conditions": "Study Period 1, safety set, 50 mg Cohort (N = 199), Day 70"}, "[6]": {"conditions": "Study Period 1, safety set, 50 mg Cohort (N = 199), Day 126"}, "[7]": {"conditions": "baseline HAM-D score ≥24, Study Period 1, 30 mg Cohort (N = 458), Day 8"}, "[8]": {"conditions": "baseline HAM-D score ≥24, Study Period 1, 30 mg Cohort (N = 458), Day 15"}, "[9]": {"conditions": "baseline HAM-D score ≥24, Study Period 1, 30 mg Cohort (N = 458), Day 28"}, "[10]": {"conditions": "baseline HAM-D score ≥24, Study Period 1, 30 mg Cohort (N = 458), Day 70"}, "[11]": {"conditions": "baseline HAM-D score ≥24, Study Period 1, 30 mg Cohort (N = 458), Day 126"}, "[12]": {"conditions": "baseline HAM-D score ≥24, Study Period 1, 50 mg Cohort (N = 127), Day 8"}, "[13]": {"conditions": "baseline HAM-D score ≥24, Study Period 1, 50 mg Cohort (N = 127), Day 15"}}, "note": "Several values for one entry are separate records, joined by “and”; a condition that tells them apart may be missing. Equal entries are not always repeated.", "data": [{"smiles": "C[C@@]1(O)CC[C@H]2[C@H](CC[C@@H]3[C@@H]2CC[C@]2(C)[C@@H](C(=O)Cn4cc(C#N)cn4)CC[C@@H]32)C1", "note": "[Compound (1), 1-(2-((3R,5R,8R,9R,10S,13S,14S,17S)-3-hydroxy-3,13-dimethylhexadecahydro-1H-cyclopenta[a]phenanthren-17-yl)-2-oxoethyl)-1H-pyrazole-4-carbonitrile]", "values": [{"measurement": "HAM-D Response", "setting": "[1]", "result": "144/203 (70.9%)"}, {"measurement": "HAM-D total score, Mean % CFB ± SD", "setting": "[1]", "result": "−62.3 ± 30.36", "unit": "%"}, {"measurement": "HAM-D total score, Mean CFB ± SD", "setting": "[1]", "result": "−15.7 ± 8.07"}, {"measurement": "HAM-D Remission", "setting": "[2]", "result": "37/193 (19.2%)"}, {"measurement": "HAM-D Response", "setting": "[2]", "result": "97/193 (50.3%)"}, {"measurement": "HAM-D total score, Mean % CFB ± SD", "setting": "[2]", "result": "−49.2 ± 22.41", "unit": "%"}, {"measurement": "HAM-D total score, Mean CFB ± SD", "setting": "[2]", "result": "−12.3 ± 5.79"}, {"measurement": "HAM-D total score, Mean % CFB ± SD", "setting": "[3]", "result": "−63.6 ± 22.70", "unit": "%"}, {"measurement": "HAM-D total score, Mean CFB ± SD", "setting": "[3]", "result": "−16±6.0 and −16.0±6.04"}, {"measurement": "HAM-D Remission", "setting": "[4]", "result": "72/191 (37.7%)"}, {"measurement": "HAM-D Response", "setting": "[4]", "result": "120/191 (62.8%)"}, {"measurement": "HAM-D total score, Mean % CFB ± SD", "setting": "[4]", "result": "−58.3 ± 26.05", "unit": "%"}, {"measurement": "HAM-D total score, Mean CFB ± SD", "setting": "[4]", "result": "−14.6 ± 6.75"}, {"measurement": "HAM-D Remission", "setting": "[5]", "result": "41/118 (34.7%)"}, {"measurement": "HAM-D Response", "setting": "[5]", "result": "69/118 (58.5%)"}, {"measurement": "HAM-D total score, Mean % CFB ± SD", "setting": "[5]", "result": "−53.7 ± 28.40", "unit": "%"}, {"measurement": "HAM-D total score, Mean CFB ± SD", "setting": "[5]", "result": "−13.6 ± 7.45"}, {"measurement": "HAM-D Remission", "setting": "[6]", "result": "19/30 (63.3%)"}, {"measurement": "HAM-D Response", "setting": "[6]", "result": "22/30 (73.3%)"}, {"measurement": "HAM-D total score, Mean % CFB ± SD", "setting": "[6]", "result": "−65.2 ± 33.96", "unit": "%"}, {"measurement": "HAM-D total score, Mean CFB ± SD", "setting": "[6]", "result": "−16.3 ± 9.06"}, {"measurement": "HAM-D Remission", "setting": "[7]", "result": "70/446 (15.7%)"}, {"measurement": "HAM-D Response", "setting": "[7]", "result": "192/446 (43.0%)"}, {"measurement": "HAM-D total score, Mean % CFB ± SD", "setting": "[7]", "result": "−43.3 ± 25.63", "unit": "%"}, {"measurement": "HAM-D total score, Mean CFB ± SD", "setting": "[7]", "result": "−12.0 ± 7.17"}, {"measurement": "HAM-D Remission", "setting": "[8]", "result": "164 (37.9%) and 164/433 (37.9%)"}, {"measurement": "HAM-D Response", "setting": "[8]", "result": "319 (73.7%) and 319/433 (73.7%)"}, {"measurement": "HAM-D total score, Mean % CFB ± SD", "setting": "[8]", "result": "−60.9 ± 25.50", "unit": "%"}, {"measurement": "HAM-D total score, Mean CFB ± SD", "setting": "[8]", "result": "−16.9 ± 7.34"}, {"measurement": "HAM-D Remission", "setting": "[9]", "result": "132/431 (30.6%)"}, {"measurement": "HAM-D Response", "setting": "[9]", "result": "250/431 (58.0%)"}, {"measurement": "HAM-D total score, Mean % CFB ± SD", "setting": "[9]", "result": "−53.9 ± 28.59", "unit": "%"}, {"measurement": "HAM-D total score, Mean CFB ± SD", "setting": "[9]", "result": "−15.0 ± 8.27"}, {"measurement": "HAM-D Remission", "setting": "[10]", "result": "70/247 (28.3%)"}, {"measurement": "HAM-D Response", "setting": "[10]", "result": "125/247 (50.6%)"}, {"measurement": "HAM-D total score, Mean % CFB ± SD", "setting": "[10]", "result": "−49.2 ± 32.86", "unit": "%"}, {"measurement": "HAM-D total score, Mean CFB ± SD", "setting": "[10]", "result": "−13.8 ± 9.39"}, {"measurement": "HAM-D Remission", "setting": "[11]", "result": "58/120 (48.3%)"}, {"measurement": "HAM-D Response", "setting": "[11]", "result": "90/120 (75.0%)"}, {"measurement": "HAM-D total score, Mean % CFB ± SD", "setting": "[11]", "result": "−66.0 ± 28.29", "unit": "%"}, {"measurement": "HAM-D total score, Mean CFB ± SD", "setting": "[11]", "result": "−18.2 ± 7.88"}, {"measurement": "HAM-D Remission", "setting": "[12]", "result": "18/122 (14.8%)"}, {"measurement": "HAM-D Response", "setting": "[12]", "result": "61/122 (50.0%)"}, {"measurement": "HAM-D total score, Mean % CFB ± SD", "setting": "[12]", "result": "−49.3 ± 21.32", "unit": "%"}, {"measurement": "HAM-D total score, Mean CFB ± SD", "setting": "[12]", "result": "−13.3 ± 5.87"}, {"measurement": "HAM-D Remission", "setting": "[13]", "result": "44 (37.3%) and 44/118 (37.3%)"}, {"measurement": "HAM-D Response", "setting": "[13]", "result": "94 (79.7%) and 94/118 (79.7%)"}, {"measurement": "HAM-D total score, Mean % CFB ± SD", "setting": "[13]", "result": "−64.1 ± 21.73", "unit": "%"}, {"measurement": "HAM-D total score, Mean CFB ± SD", "setting": "[13]", "result": "−17.4 ± 6.05"}, {"measurement": "HAM-D Remission", "setting": "baseline HAM-D score ≥24, Study Period 1, 50 mg Cohort (N = 127), Day 28", "result": "41/120 (34.2%)"}]}]}
